# Laboratory results: patent US11638427B2, “Methods and compositions for altering secondary metabolites in plants” (Impello Biosciences, Inc, priority 2020, dated 2023)
# “And” between values parts separate entries of the source, which are not always exact repeats. Equal entries are not always repeated.
# Test system: CBDRx Cherry hemp clones
# Assay: Foliar spray of MS, MDJ and MS+MDJ on hemp clones: biomass, cannabinoid and terpene analysis
# Format: in vivo, Cannabis spp.
# Set-up: CBDA / CBD / THCA / Total CBG / Total cannabinoids: unit not given here
# Details: for plants died before the end of the experiment: four plants per treatment group
# Method: Methyl salicylate (MS) is an antagonistic compound to the jasmonates. To investigate the effect of MS alone and in conjunction with MDJ, MS (CAS No.: 119-36-8), MDJ, and the combination (MS+MDJ) were applied by foliar spray to CBDRx Cherry hemp clones once per week during both vegetative and flowering phases. Plants were transplanted into 1-gallon pots with Red's soil and put into vegetative light cycle (18L/6D). […] Plants were grown under a total of 12 Boost (Thrive Agritech, NY) 130-watt LED lights set to 18L: 6D photoperiod during the vegetative phase (2 weeks) and this was followed by a 12L: 12D photoperiod during the flowering phase (7 weeks), using the same lighting fixtures. Throughout the nine weeks, all plants were watered when needed with Jack's nutrients.
# MS or MDJ treatments were applied at the following concentrations: [1 mM], [4.25 mM], [7.5 mM] and [10 mM]. Each concentration was prepared from a one molar stock solution diluted with RO water and TWEEN®-20 (1M stock) was added. Each plant was sprayed till dripping, which was approximately 50-75 ml. To apply the combination of the two biochemicals, MS and MDJ were sprayed separately but simultaneously, to ensure each compound was applied evenly onto the plant. Each compound was applied using a SPRAYMASTER Chemical Sprayer (King of Prussia, Pa.).
# Plants were harvested two months after transplant. After harvesting, plants were air dried at room temperature for two weeks. Once plants were sufficiently dry, above ground dry weights were recorded and dried flower samples were collected and sent to a third-party lab for terpene and cannabinoid analysis. Two plants (#3 and #4) in treatment group MDJ [7.5] mM, two plants (#3 and #4) in MS [4.25] mM, one plant (#4) in MS [7.5], and one plant (#4) in MDJ [10] died before the end of the experiment.
# [1] = 1 mM foliar spray, Avg. of group
# [2] = 1 mM foliar spray, individual plant
# [3] = 4.25 mM foliar spray, Avg. of group
# [4] = 4.25 mM foliar spray, individual plant
# [5] = 7.5 mM foliar spray, Avg. of group
# [6] = 7.5 mM foliar spray, individual plant
# [7] = 10 mM foliar spray, Avg. of group
# [8] = 10 mM foliar spray, individual plant
smiles,measurement,setting,value
"CCCCCC1C(=O)CCC1CC(=O)OC (centres unmarked) [MDJ, methyl dihydrojasmonate]",Alpha-bisabolol,[1],0.109 % wt/wt
same,Alpha-humulene,[1],0.08163 % wt/wt
same,Beta-caryophyllene,[1],0.2027 % wt/wt
same,CBCA,[1],0.64
same,CBD,[1],0.105
same,CBDA,[1],12.99
same,CBGA,[1],0.3425
same,Limonene,[1],0.1362 % wt/wt
same,THCA,[1],0.565
same,Total CBD,[1],11.4975
same,Total CBG,[1],4.2075
same,Total cannabinoids,[1],14.6425
same,Total d9THC,[1],0.495
same,alpha-pinene,[1],0.02277 % wt/wt
same,beta-myrcene,[1],1.04 % wt/wt
same,beta-pinene,[1],0.0188 % wt/wt
same,total terpenes,[1],1.7075 % wt/wt
same,Alpha-bisabolol,[2],0.1238 % wt/wt and 0.1069 % wt/wt and 0.094 % wt/wt and 0.1113 % wt/wt
same,Alpha-humulene,[2],0.0944 % wt/wt and 0.0784 % wt/wt and 0.0831 % wt/wt and 0.0706 % wt/wt
same,Beta-caryophyllene,[2],0.2352 % wt/wt and 0.2003 % wt/wt and 0.2076 % wt/wt and 0.1676 % wt/wt
same,CBCA,[2],0.57 and 0.71 and 0.64 (2×)
same,CBD,[2],0.16 and 0 and 0.12 and 0.14
same,CBDA,[2],11.86 and 14.25 and 13.12 and 12.73
same,CBGA,[2],0.28 and 0.44 and 0.34 and 0.31
same,Limonene,[2],0.1352 % wt/wt and 0.1309 % wt/wt and 0.1572 % wt/wt and 0.1215 % wt/wt
same,THCA,[2],0.52 and 0.63 and 0.57 and 0.54
same,Total CBD,[2],10.55 and 12.5 and 11.63 and 11.31
same,Total CBG,[2],0.24 and 16.03 and 0.29 and 0.27
same,Total cannabinoids,[2],13.39 and 16.03 and 14.79 and 14.36
same,Total d9THC,[2],0.45 and 0.55 and 0.5 and 0.48
same,alpha-pinene,[2],0.0293 % wt/wt and 0.0283 % wt/wt and 0.0335 % wt/wt and 0 % wt/wt
same,beta-myrcene,[2],0.9825 % wt/wt and 1.0146 % wt/wt and 1.2146 % wt/wt and 0.9497 % wt/wt
same,beta-pinene,[2],0.0269 % wt/wt and 0.0238 % wt/wt and 0.0245 % wt/wt and 0 % wt/wt
same,total terpenes,[2],1.73 % wt/wt and 1.67 % wt/wt and 1.92 % wt/wt and 1.51 % wt/wt
same,Alpha-bisabolol,[3],0.1242 % wt/wt
same,Alpha-humulene,[3],0.0859 % wt/wt
same,Beta-caryophyllene,[3],0.2106 % wt/wt
same,CBCA,[3],0.6275
same,CBD,[3],0.29
same,CBDA,[3],12.9825
same,CBGA,[3],0.2975
same,Limonene,[3],0.1168 % wt/wt
same,THCA,[3],0.565
same,Total CBD,[3],11.6725
same,Total CBG,[3],0.2625
same,Total cannabinoids,[3],14.7625
same,Total d9THC,[3],0.495
same,alpha-pinene,[3],0.0132 % wt/wt
same,beta-myrcene,[3],0.9189 % wt/wt
same,beta-pinene,[3],0.02055 % wt/wt
same,total terpenes,[3],1.5875 % wt/wt
same,Alpha-bisabolol,[4],0.1239 % wt/wt and 0.1229 % wt/wt and 0.1255 % wt/wt and 0.1245 % wt/wt
same,Alpha-humulene,[4],0.0851 % wt/wt and 0.0781 % wt/wt and 0.0861 % wt/wt and 0.0943 % wt/wt
same,Beta-caryophyllene,[4],0.2071 % wt/wt and 0.1897 % wt/wt and 0.208 % wt/wt and 0.2377 % wt/wt
same,CBCA,[4],0.63 (2×) and 0.65 and 0.6
same,CBD,[4],0.28 and 0.36 and 0.38 and 0.14
same,CBDA,[4],13.17 (2×) and 12.87 and 12.72
same,CBGA,[4],0.33 and 0.31 and 0.26 and 0.29
same,Limonene,[4],0.1049 % wt/wt and 0.1307 % wt/wt and 0.0983 % wt/wt and 0.1334 % wt/wt
same,THCA,[4],0.57 (2×) and 0.56 (2×)
same,Total CBD,[4],11.83 and 11.9 and 11.67 and 11.29
same,Total CBG,[4],0.29 and 0.27 and 0.23 and 0.26
same,Total cannabinoids,[4],14.98 and 15.06 and 14.7 and 14.31
same,Total d9THC,[4],0.5 (2×) and 0.49 (2×)
same,alpha-pinene,[4],0 % wt/wt (2×) and 0.0253 % wt/wt and 0.0275 % wt/wt
same,beta-myrcene,[4],0.8032 % wt/wt and 1.0724 % wt/wt and 0.7447 % wt/wt and 1.0552 % wt/wt
same,beta-pinene,[4],0.0189 % wt/wt and 0.021 % wt/wt and 0.019 % wt/wt and 0.0233 % wt/wt
same,total terpenes,[4],1.44 % wt/wt and 1.73 % wt/wt and 1.38 % wt/wt and 1.8 % wt/wt
same,Alpha-bisabolol,[5],0.112 % wt/wt
same,Alpha-humulene,[5],0.08165 % wt/wt
same,Beta-caryophyllene,[5],0.2043 % wt/wt
same,CBCA,[5],0.675
same,CBD,[5],0.125
same,CBDA,[5],13.16
same,CBGA,[5],0.365
same,Limonene,[5],0.09595 % wt/wt
same,THCA,[5],0.575
same,Total CBD,[5],11.665
same,Total CBG,[5],0.315
same,Total cannabinoids,[5],14.9
same,Total d9THC,[5],0.505
same,alpha-pinene,[5],0 % wt/wt
same,beta-myrcene,[5],0.7442 % wt/wt
same,beta-pinene,[5],0.01015 % wt/wt
same,total terpenes,[5],1.345 % wt/wt
same,plants died before the end of the experiment,7.5 mM foliar spray,Two plants
same,Alpha-bisabolol,[6],0.1165 % wt/wt and 0.1076 % wt/wt
same,Alpha-humulene,[6],0.0802 % wt/wt and 0.0831 % wt/wt
same,Beta-caryophyllene,[6],0.2 % wt/wt and 0.2086 % wt/wt
same,CBCA,[6],0.63 and 0.72
same,CBD,[6],0.14 and 0.11
same,CBDA,[6],12.43 and 13.89
same,CBGA,[6],0.36 and 0.37
same,Limonene,[6],0.0965 % wt/wt and 0.0954 % wt/wt
same,THCA,[6],0.53 and 0.62
same,Total CBD,[6],11.04 and 12.29
same,Total CBG,[6],0.31 and 0.32
same,Total cannabinoids,[6],14.09 and 15.71
same,Total d9THC,[6],0.47 and 0.54
same,alpha-pinene,[6],0 % wt/wt
same,beta-myrcene,[6],0.7818 % wt/wt and 0.7066 % wt/wt
same,beta-pinene,[6],0.0203 % wt/wt and 0 % wt/wt
same,total terpenes,[6],1.39 % wt/wt and 1.3 % wt/wt
same,Alpha-bisabolol,[7],1.477 % wt/wt
same,Alpha-humulene,[7],0.1323 % wt/wt
same,Beta-caryophyllene,[7],0.0874 % wt/wt
same,CBCA,[7],0.643
same,CBD,[7],0.24
same,CBDA,[7],12.936
same,CBGA,[7],0.33
same,Limonene,[7],0.2188 % wt/wt
same,THCA,[7],0.56
same,Total CBD,[7],11.58
same,Total CBG,[7],0.29
same,Total cannabinoids,[7],14.71
same,Total d9THC,[7],0.493
same,alpha-pinene,[7],0.023 % wt/wt
same,beta-myrcene,[7],0.1067 % wt/wt
same,beta-pinene,[7],0.8058 % wt/wt
same,total terpenes,[7],0.023 % wt/wt
same,plants died before the end of the experiment,10 mM foliar spray,one plant
same,Alpha-bisabolol,[8],0.1507 % wt/wt and 0.143 % wt/wt and 0.1033 % wt/wt
same,Alpha-humulene,[8],0.0955 % wt/wt and 0.0751 % wt/wt and 0.0916 % wt/wt
same,Beta-caryophyllene,[8],0.2372 % wt/wt and 0.1978 % wt/wt and 0.2214 % wt/wt
same,CBCA,[8],0.62 and 0.71 and 0.6
same,CBD,[8],0.18 and 0.34 and 0.2
same,CBDA,[8],12.76 and 14.33 and 11.72
same,CBGA,[8],0.26 and 0.41 and 0.32
same,Limonene,[8],0.1165 % wt/wt and 0.0884 % wt/wt and 0.1154 % wt/wt
same,THCA,[8],0.56 and 0.62 and 0.5
same,Total CBD,[8],11.36 and 12.9 and 10.48
same,Total CBG,[8],0.23 and 0.36 and 0.28
same,Total cannabinoids,[8],14.38 and 16.41 and 13.34
same,Total d9THC,[8],0.49 and 0.55 and 0.44
same,alpha-pinene,[8],0 % wt/wt
same,beta-myrcene,[8],0.8838 % wt/wt and 0.6844 % wt/wt and 0.8492 % wt/wt
same,beta-pinene,[8],0.0249 % wt/wt and 0.0217 % wt/wt and 0.0224 % wt/wt
same,total terpenes,[8],1.62 % wt/wt and 1.3 % wt/wt and 1.51 % wt/wt
same,plant growth effects on clonal hemp plants in the vegetative stage,"all concentrations (1-10 mM), compared to all tested concentrations of MS",beneficial plant growth effects
same,total terpene content,application of 1 mM or 4.25 mM,increased
